In patent US11319348B2, “Synthetic beta-amyloid peptides capable of forming stable antigenic oligomers” (The Regents of the University of California, priority 2016, dated 2022):
Non-standard residues stand in square brackets, D forms with d. No end group written: not given here. NMeF = CN[C@@H](Cc1ccccc1)C(=O)O; Orn = NCCC[C@H](N)C(=O)O

Experiments:
SH-SY5Y cells = experiment: LDH release assay; assay type: cell-based, human; conditions: for LDH release / toxicity toward SH-SY5Y cells, in words / LDH release / lowest concentration with increased LDH release / toxicity (concentrations as low as): SH-SY5Y cells; for LDH release: 72 h
Method: Aβ is known to be toxic toward neurons and neuronally derived cells (I. Benilova, et al., 2012, cited supra). To corroborate the toxicity of Aβ, we prepared oligomers of Aβ42 and studied their toxicity toward a human neuroblastoma cell line, SH-SY5Y. Aβ oligomers were prepared according to the procedure developed by Teplow and coworkers using recombinantly expressed Aβ42 pretreated with NH4OH (purchased from rPeptide) (D. B. Teplow, Methods Enzymol. 2006 413, 20-33; and Y. Fezoui, et al., Amyloid. 2000 7, 166-178; the disclosures of which are incorporated herein by reference). Under the conditions of the oligomer preparation, Aβ42 forms predominantly monomer, trimer, and tetramer as assessed by SDS-PAGE (FIG. 28A). It was also observed that bands migrated with molecular weights consistent with a pentamer and hexamer. SH-SY5Y cells were treated with varying concentrations of Aβ42, and toxicity was evaluated using a lactate dehydrogenase (LDH) release assay. Aβ42 increased LDH release in a dose-dependent manner at concentrations as low as 2.5 μM, corroborating the toxicity of Aβ42 (FIG. 28B).
It was hypothesized that trimers 3 and 4 may elicit toxicity similarly to Aβ42. The toxicities of trimers 3 and 4 towards SH-SY5Y cells were evaluated using an LDH assay, using deionized water (vehicle) and peptides 1 and 2 as controls. Trimer 4 increased LDH release in a dose-dependent manner at concentrations as low as 1.5 μM, indicating toxicity toward SH-SY5Y cells (FIG. 29A). LDH release was observed as early as 48 h after addition to the cells and reached a maximum after 72 h.
Many oligomers formed by full-length Aβ are toxic toward cells (I. Benilove, E. Karan, and B. De Strooper, Nat. Neurosci. 2012 15, 349-357; and M. E. Larson and S. E. Lesne J. Neurochem. 2012 120, 125-139; the disclosures of which are incorporated herein by reference). To test whether the oligomers formed by peptide 8 are also toxic, the toxicity of peptide 8 toward neuronally derived SH-SY5Y cells were evaluated using a lactate dehydrogenase (LDH) release assay. Peptide 8 and 10 were compared to investigate how the hexamer-forming Aβ16-36-derived peptide compares to a non-oligomerizing homologue. The toxicity of peptides 2 and 11 were also evaluated to better understand the relationship between oligomerization and toxicity.
The toxicities of peptides 1 and […], and trimers 3 and 4 toward SH-SY5Y cells were assessed by LDH release and caspase-3 activation assays. Cells were incubated in the presence or absence of equivalent concentrations of peptides 1 or 3, or trimers 3 and 4 for 72 h in 96-well plates. The LDH release assay was performed using the Pierce LDH Cytotoxicity Assay Kit from Thermo Scientific. The caspase-3 assay was performed using the Roche APO-One Homogeneous Caspase-3/7 Assay. Experiments were performed in replicates of five and an additional 10 wells were used for controls. Cells were cultured in the inner 60 wells (rows B-G, columns 2-11) of the 96-well plate. DMEM:F12 media (100 μL) was added to the outer wells (rows A and H, columns 1 and 12), in order to ensure the greatest reproducibility of data generated in the inner wells.
A 10 mg/mL stock solution of peptides 1 or […], or trimers 3 and 4 was prepared gravimetrically by dissolving 1 mg of each compound in 100 μL of deionized water that was either filtered through a 0.2 μm syringe filter or autoclaved. The stock solution was used to create 180 μM working solutions of peptides 1 or 3, or 60 μM working solutions of trimers 3 and 4 (these solutions contain equivalent concentrations of peptide). The 180 μM working solutions of peptides 1 and 2 were serially diluted with deionized water to create 90 μM working solutions of peptides 1 and 2. The 60 μM working solutions of trimers 3 and 4 were serially diluted with deionized water to create 30 μM, 15 μM, and 7.5 μM working solutions of trimers 3 and 4.
SH-SY5Y cells were plated in a 96-well plate at 30,000 cells per well. […]

A11 antibody = experiment: dot blot with A11 antibody; assay type: binding
Source text: The LDH release and caspase-3 activation studies indicate that trimers 3 and 4 behave similarly to oligomers of full-length Aβ, providing evidence for the biological significance of the triangular assembly. To further evaluate how the biological properties of trimers 3 and 4 compare to those of full-length Aβ, the reactivity of trimers 3 and 4 with the conformation specific antibody A11 was examined. […] The structures of the A oligomers recognized by the A11 antibody are not known. We investigated whether the A11 antibody recognizes trimers 3 and 4 by dot blot analysis.
A 10 mg/mL stock solution of peptides 1 or 2, or trimers 3 or 4 was prepared gravimetrically by dissolving 1 mg of each compound in 100 μL of deionized water that was either filtered through a 0.2 μm syringe filter. An aliquot of each stock solution was diluted with deionized water to make 3 mg/mL solutions. The 3 mg/mL solutions were then serially diluted with deionized water to create 1.5 mg/mL, 0.75 mg/mL, and 0.37 mg/mL solutions. A 5 μL aliquot of each solution from the serial dilution was combined with 5 μL of a 2× solution of phosphate buffered saline (PBS) at pH 7.4 to generate 1.5 mg/mL, 0.75 mg/mL, and 0.37 mg/mL, and 0.18 mg/mL buffered solutions of peptides 1 or 2 or trimers 3 or 4. A 1-μL aliquot of each buffered solution was spotted onto a nitrocellulose membrane and allowed to aft dry (˜5 min). Non-reactive sites were blocked with 10% (w/v) non-fat powdered milk in low-Tween Tris-buffered saline (TBS-IT: 20 mM Tris, 137 mM NaCl; 0.01% Tween 20, pH 7.6) for 1 h at room temperature with rocking. The membrane was then incubated while rocking overnight at 4° C. in primary A11 antibody (200 μg/mL) in 5% non-fat powdered milk in TBS-IT. The next day, the membrane was washed with TBS-IT for 5 min (3×). The membrane was then incubated while rocking with horseradish peroxidase conjugated goat anti-rabbit antibody (100 μg/mL) (Jackson ImmunoResearch catalog #111-035-003) in 5% non-fat powdered milk in TBS-IT for 1 h at room temperature. The membrane was then washed with TBS-IT for 5 min (3×). A 10 mL portion of chemiluminescence substrate (Thermo Scientific SuperSignal West Femto Maximum Sensitivity Substrate, product #34095) was prepared according to manufacturer's protocol and poured onto the membrane. The membrane was allowed to incubate in the chemiluminescence substrate for ˜10 min before imaging. The blot was imaged using a standard digital SLR camera.

[1] = after addition to SH-SY5Y cells

## peptide 1: macrocyclic β-sheet peptide: Aβ17-23 and Aβ30-36 strands linked by two δOrn turns, Orn35, N-methyl on G33 (Seq. ID 18-19)
SH-SY5Y cells
  LDH release / toxicity toward SH-SY5Y cells, in words: little or no LDH release
  LDH release: no
A11 antibody
  A11 reactivity: no
  reaction with A11 antibody: do not

## peptide 2: macrocyclic β-sheet peptide: Aβ17-23 and Aβ30-36 strands linked by two δOrn turns, Orn35, N-methyl on F20 (Seq. ID 20-21)
SH-SY5Y cells
  LDH release / toxicity toward SH-SY5Y cells, in words: little or no LDH release
  lowest concentration with increased LDH release / toxicity (concentrations as low as): 100 µM
  LDH release: no
A11 antibody
  A11 reactivity: no
  reaction with A11 antibody: do not

## trimer 3: symmetric tris-disulfide crosslinked trimer generated from peptide 3 (chain 1 [Orn]CVFFCED; chain 2 [Orn]AIIGL[Orn]V; not fully specified (some residues); also: symmetric tris-disulfide crosslinked trimer, macrocyclic by macrolactamization, linkage of strands not given here)
SH-SY5Y cells
  LDH release / toxicity toward SH-SY5Y cells, in words: far less LDH release than trimer 4
  LDH release: some
A11 antibody
  A11 reactivity: yes
  reaction with A11 antibody: react with the A11 antibody

## trimer 4: symmetric tris-disulfide crosslinked trimer generated from peptide 4 (chain 1 [Orn]CVF[NMeF]CED; chain 2 [Orn]AIIGL[Orn]V; also: symmetric tris-disulfide crosslinked trimer, macrocyclic by macrolactamization, linkage of strands not given here)
SH-SY5Y cells
  lowest concentration with increased LDH release / toxicity (concentrations as low as): 1.5 µM
  LDH release: yes
SH-SY5Y cells; [1]
  time at which LDH release reached a maximum: 72 h
  time at which LDH release was first observed (as early as): 48 h
A11 antibody
  A11 reactivity: yes
  reaction with A11 antibody: react with the A11 antibody
